Broadly, the Emax is the greatest response seen or fitted, relative to the assay's reference. The term EC50 denotes the concentration needed to bring the measured effect to its halfway point. A low value points to a more potent agent.

These results are taken from PMC5908784, “Extracellular loops 2 and 3 of the calcitonin receptor selectively modify agonist binding and efficacy” (Biochemical Pharmacology, 2018).

Assay in all cases: cAMP accumulation
Type in all cases: cell-based
Holding throughout (details): mean ± S.E.M.; for Emax: cAMP maximal response, SEM; for EC50: cAMP, CV1-FlpIn cells, 30 min, IBMX
In general terms: Changes in cAMP serve as a functional read-out for many G protein-coupled receptors.

One assay has as its target T1, hCTR L297A (Homo sapiens, UniProt P30988, L297A).
T1 construct: c-Myc (N); expressed in transfected cells
T1 sequence (P30988 25-474 L297A): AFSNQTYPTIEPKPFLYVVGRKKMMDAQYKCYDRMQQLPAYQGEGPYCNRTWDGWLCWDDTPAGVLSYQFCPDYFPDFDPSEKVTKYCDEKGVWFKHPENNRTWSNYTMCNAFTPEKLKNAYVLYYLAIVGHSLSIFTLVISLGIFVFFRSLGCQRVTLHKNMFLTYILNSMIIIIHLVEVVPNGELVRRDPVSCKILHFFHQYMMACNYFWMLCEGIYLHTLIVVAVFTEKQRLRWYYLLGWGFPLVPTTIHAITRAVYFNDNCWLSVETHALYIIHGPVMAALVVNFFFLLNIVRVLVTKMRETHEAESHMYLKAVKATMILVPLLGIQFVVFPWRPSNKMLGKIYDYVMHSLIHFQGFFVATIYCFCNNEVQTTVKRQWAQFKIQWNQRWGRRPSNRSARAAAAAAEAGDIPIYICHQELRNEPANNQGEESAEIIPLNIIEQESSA
An outline of the steps:
(§1)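 30 min ligand stimulation with IBMX present; cells seeded overnight beforehand. Ethanol extract, dried at RT.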

A further assay deals with T2, hCTR Y374A (Homo sapiens, UniProt P30988, Y374A).
T2 construct: c-Myc (N); expressed in transfected cells
T2 sequence (P30988 25-474 Y374A): T1 sequence (P30988 25-474 L297A) with A273L, Y350A
An outline of the steps:
as §1

The target of the next assay is T3, hCTR I371A (Homo sapiens, UniProt P30988, I371A).
T3 construct: c-Myc (N); expressed in transfected cells
T3 sequence (P30988 25-474 I371A): T1 sequence (P30988 25-474 L297A) with A273L, I347A
An outline of the steps:
as §1

The target in another assay is T4, hCTR G369A (Homo sapiens, UniProt P30988, G369A).
T4 construct: c-Myc (N); expressed in transfected cells
T4 sequence (P30988 25-474 G369A): T1 sequence (P30988 25-474 L297A) with A273L, G345A
An outline of the steps:
as §1

For another assay, the target named is T5, hCTR L368A (Homo sapiens, UniProt P30988, L368A).
T5 construct: c-Myc (N); expressed in transfected cells
T5 sequence (P30988 25-474 L368A): T1 sequence (P30988 25-474 L297A) with A273L, L344A
An outline of the steps: as §1

Numbering of substitutions follows the chain as printed. Where a SMILES comes first, the peptide text is derived from it. Bridges are numbered along the chain shown (N, C = ends).

As to `CC(C)C[C@H](NC(=O)[C@H](CCCCN)NC(=O)CNC(=O)[C@H](CC(C)C)NC(=O)[C@@H](NC(=O)[C@@H]1CSSC[C@H](N)C(=O)N[C@@H](CO)C(=O)N[C@@H](CC(N)=O)C(=O)N[C@@H](CC(C)C)C(=O)N[C@@H](CO)C(=O)N[C@@H]([C@@H](C)O)C(=O)N1)C(C)C)C(=O)N[C@@H](CO)C(=O)N[C@@H](CCC(N)=O)C(=O)N[C@@H](CCC(=O)O)C(=O)N[C@@H](CC(C)C)C(=O)N[C@@H](Cc1c[nH]cn1)C(=O)N[C@@H](CCCCN)C(=O)N[C@@H](CC(C)C)C(=O)N[C@@H](CCC(N)=O)C(=O)N[C@H](C(=O)N[C@@H](Cc1ccc(O)cc1)C(=O)N1CCC[C@H]1C(=O)N[C@@H](CCCNC(=N)N)C(=O)N[C@H](C(=O)N[C@@H](CC(N)=O)C(=O)N[C@H](C(=O)NCC(=O)N[C@@H](CO)C(=O)NCC(=O)N[C@H](C(=O)N1CCC[C@H]1C(N)=O)[C@@H](C)O)[C@@H](C)O)[C@@H](C)O)[C@@H](C)O` [sCT], the maximal effect (Emax) on hCTR L297A came out at 103 ± 12%; at hCTR Y374A, 96 ± 5%; on hCTR I371A it was 28 ± 2%; on hCTR G369A it was 106 ± 8%; on hCTR L368A, 75 ± 7%.
As to `CSCC[C@H](NC(=O)CNC(=O)[C@H](CO)NC(=O)[C@H](Cc1ccccc1)NC(=O)[C@H](CCCNC(=N)N)NC(=O)[C@H](Cc1c[nH]cn1)NC(=O)[C@H](Cc1ccccc1)NC(=O)[C@H](CC(N)=O)NC(=O)[C@H](CC(N)=O)NC(=O)[C@H](CC(C)C)NC(=O)[C@H](CC(N)=O)NC(=O)[C@H](CCCNC(=N)N)NC(=O)[C@H](Cc1c[nH]c2ccccc12)NC(=O)[C@H](Cc1ccc(O)cc1)NC(=O)[C@H](C)NC(=O)[C@H](CO)NC(=O)[C@H](CC(C)C)NC(=O)[C@@H](NC(=O)[C@@H]1CSSC[C@H](N)C(=O)N[C@@H](CO)C(=O)N[C@@H](CC(N)=O)C(=O)N[C@@H](CC(C)C)C(=O)N[C@@H](CO)C(=O)N[C@@H]([C@@H](C)O)C(=O)N1)C(C)C)C(=O)NCC(=O)N[C@@H](Cc1ccccc1)C(=O)NCC(=O)N1CCC[C@H]1C(=O)N[C@@H](CCC(=O)O)C(=O)N[C@H](C(=O)N1CCC[C@H]1C(N)=O)[C@@H](C)O` [pCT] (H-CSNLSTCVLSAYWRNLNNFHRFSGMGFGPETP-NH2; disulfide 1-7), the maximum response (Emax) came to 127 ± 8% at hCTR L297A; 90 ± 9% on hCTR Y374A; 35 ± 5% on hCTR I371A; 89 ± 7% at hCTR G369A; 96 ± 6% at hCTR L368A. Also, the concentration giving a half-maximal response (EC50) at hCTR L297A was 0.1 ± 0.002 nM; on hCTR Y374A, 0.02 nM; at hCTR I371A it was 0.0794 nM; on hCTR G369A, 0.204 nM; on hCTR L368A, 0.0316 nM.
With `CC(C)C[C@H](NC(=O)[C@H](CC(N)=O)NC(=O)[C@H](CC(N)=O)NC(=O)[C@H](CO)NC(=O)[C@H](CO)NC(=O)[C@H](CCCNC(=N)N)NC(=O)[C@@H](NC(=O)[C@H](CC(C)C)NC(=O)[C@H](Cc1ccccc1)NC(=O)[C@H](CC(N)=O)NC(=O)[C@H](C)NC(=O)[C@H](CC(C)C)NC(=O)[C@H](CCCNC(=N)N)NC(=O)[C@H](CCC(N)=O)NC(=O)[C@@H](NC(=O)[C@H](C)NC(=O)[C@@H]1CSSC[C@H](NC(=O)[C@@H](N)CCCCN)C(=O)N[C@@H](CC(N)=O)C(=O)N[C@@H]([C@@H](C)O)C(=O)N[C@@H](C)C(=O)N[C@@H]([C@@H](C)O)C(=O)N1)[C@@H](C)O)C(C)C)C(=O)NCC(=O)N1CCC[C@H]1C(=O)N[C@H](C(=O)N[C@@H](CC(C)C)C(=O)N1CCC[C@H]1C(=O)N1CCC[C@H]1C(=O)N[C@H](C(=O)N[C@@H](CC(N)=O)C(=O)N[C@H](C(=O)NCC(=O)N[C@@H](CO)C(=O)N[C@@H](CC(N)=O)C(=O)N[C@H](C(=O)N[C@@H](Cc1ccc(O)cc1)C(N)=O)[C@@H](C)O)C(C)C)[C@@H](C)O)C(C)C` [rAmy], the Emax was 85 ± 10% on hCTR L297A; 92 ± 9% on hCTR Y374A; 47 ± 7% on hCTR I371A; 78 ± 6% at hCTR G369A; 95 ± 12% on hCTR L368A.
Regarding `CC(C)C[C@H](NC(=O)CNC(=O)[C@H](C)NC(=O)[C@H](CC(C)C)NC(=O)[C@H](CCCNC(=N)N)NC(=O)[C@H](Cc1cnc[nH]1)NC(=O)[C@@H](NC(=O)[C@@H](NC(=O)[C@@H]1CSSC[C@H](NC(=O)[C@H](C)N)C(=O)N[C@@H](CC(=O)O)C(=O)N[C@@H]([C@@H](C)O)C(=O)N[C@@H](C)C(=O)N[C@@H]([C@@H](C)O)C(=O)N1)C(C)C)[C@@H](C)O)C(=O)N[C@@H](CC(C)C)C(=O)N[C@@H](CO)C(=O)N[C@@H](CCCNC(=N)N)C(=O)N[C@@H](CO)C(=O)NCC(=O)NCC(=O)N[C@H](C(=O)N[C@H](C(=O)N[C@@H](CCCCN)C(=O)N[C@@H](CC(N)=O)C(=O)N[C@@H](CC(N)=O)C(=O)N[C@@H](Cc1ccccc1)C(=O)N[C@H](C(=O)N1CCC[C@H]1C(=O)N[C@H](C(=O)N[C@@H](CC(N)=O)C(=O)N[C@H](C(=O)NCC(=O)N[C@@H](CO)C(=O)N[C@@H](CCCCN)C(=O)N[C@@H](C)C(=O)N[C@@H](Cc1ccccc1)C(N)=O)C(C)C)[C@@H](C)O)C(C)C)C(C)C)C(C)C` [hαCGRP], the Emax at hCTR L297A was determined as 88 ± 14%; at hCTR Y374A, 82 ± 12%; on hCTR I371A it was 58 ± 15%; on hCTR G369A, 131 ± 20%; on hCTR L368A it was 78 ± 12%. The EC50 was 36.3 nM at hCTR L297A; 25.1 nM on hCTR Y374A; 132 nM on hCTR I371A; 24.5 nM at hCTR G369A; 11.5 nM at hCTR L368A.
